This passage reports MIC results from patent US4698352A, “4-oxo-1,4-dihydronicotinic acid derivatives, salts thereof, and antibacterial agents containing the same” (Toyama Chemical Co., Ltd., priority 1982, dated 1987).

Holding throughout (assay): Antibacterial activity (MIC), agar dilution
Holding throughout (assay type): cell-based

One experiment has as its system St. aureus F-137*. Particulars: Staphylococcus aureus, 20 h, St. aureus F-137, penicillinase-producing; 10^6 cells per ml; read-out: MIC. The source says: (§1) The amount of bacteria inoculated was 10^4 cells per plate (10^6 cells per ml).
(§2) * Penicillinase-producing bacteria

A further experiment deals with Ps. aeruginosa GN3379*. Particulars: Pseudomonas aeruginosa, Ps. aeruginosa GN3379, penicillinase-producing, 10^6 cells per ml.
Source text: as §1, §2

The test system of a further experiment is Kl. pneumoniae Y-4*. As to conditions: Klebsiella pneumoniae, 20 h, Kl. pneumoniae Y-4, penicillinase-producing; 10^6 cells per ml; read-out: MIC.
Source text: as §1, §2

Another experiment concerns E. coli TK-3*. Particulars: Escherichia coli, 20 h, E. coli TK-3, penicillinase-producing; 10^6 cells per ml; read-out: MIC.
Source text: as §1, §2

A further experiment has as its system E. coli GN5482**. Particulars: Escherichia coli.
Source text: as §1
(§3) ** Cephalospolinase-producing bacteria

Another experiment deals with Pro. vulgaris GN76**. Particulars: Proteus vulgaris, 20 h; Pro. vulgaris GN76, cephalospolinase-producing; 10^6 cells per ml; read-out: MIC.
Source text: as §1, §3

The test system of another experiment is Ps. aeruginosa GN918**. As to conditions: Pseudomonas aeruginosa, Ps. aeruginosa GN918, cephalospolinase-producing, 10^6 cells per ml.
Source text: as §1, §3

In a further experiment the test system is E. coli NIHJ JC-2. As to conditions: Escherichia coli, NIHJJC2, 20 h.
Source text: as §1

Another experiment has as its system E. coli TK-111. Particulars: Escherichia coli, TK111, 20 h, E. coli TK-111; 10^6 cells per ml; 37° C., 20 hours; read-out: MIC.
Source text: as §1

A further experiment relates to Ps. aeruginosa S-68. Particulars: Pseudomonas aeruginosa, S68; Ps. aeruginosa S-68; 10^6 cells per ml; 37° C., 20 hours; read-out: MIC.
Source text: as §1

Another experiment has as its system Pro. vulgaris GN3027. Particulars: Proteus vulgaris, GN3027, 20 h, Pro. vulgaris GN3027; 10^6 cells per ml; 37° C., 20 hours; read-out: MIC.
Source text: as §1

The next experiment relates to St. aureus FDA209P. Particulars: Staphylococcus aureus, FDA209P, 20 h.
Source text: as §1

A further experiment concerns Pro. morganii T-216. As to conditions: Morganella morganii, 37° C.
Source text: as §1

The subject of the next experiment is Ps. aeruginosa IFO3445. Particulars: Pseudomonas aeruginosa.
Source text: as §1

The subject of another experiment is Aci. antitratus A-6. As to conditions: 20 h, Aci. antitratus A-6; 10^6 cells per ml; 37° C., 20 hours; read-out: MIC.
Source text: as §1

The test system of the next experiment is Kl. pneumoniae Y-41. As to conditions: Klebsiella pneumoniae, Y41, 10^6 cells per ml, 37° C., 20 hours, read-out: MIC.
Source text: as §1

The next experiment relates to Kl. pneumoniae Y-50. As to conditions: Klebsiella pneumoniae, Y50, 20 h, 10^6 cells per ml, 37° C., read-out: MIC.
Source text: as §1

In the next experiment the test system is Pro. mirabilis T-111. Particulars: Proteus mirabilis, 37° C.
Source text: as §1

For a further experiment, the system named is Ent. cloacae IID977. As to conditions: Enterobacter cloacae, IID977, 20 h, Ent. cloacae IID977; 10^6 cells per ml; 37° C., 20 hours; read-out: MIC.
Source text: as §1

[1] abbreviates: 20 h, E. coli GN5482, cephalospolinase-producing, 10^6 cells per ml, read-out: MIC.
[2] abbreviates: E. coli NIHJ JC-2, 10^6 cells per ml, 37° C., 20 hours, read-out: MIC.
[3] abbreviates: St. aureus FDA209P, 10^6 cells per ml, 37° C., 20 hours, read-out: MIC.
Setting [4] is: T216, 10^6 cells per ml, 20 hours, read-out: MIC.
[5] abbreviates: Ps. aeruginosa IFO3445, 10^6 cells per ml, 37° C., 20 hours, read-out: MIC.

Values after ≈ are worked out from the molar mass of the structure shown. Where two headings read alike, the source gives them in different places. A value given as a limit tells only on which side of the number the result lay.

With `CN(C)c1ccc(-c2cc(=O)c(C(=O)O)cn2-c2ccc(O)c(F)c2)cc1`, the MIC in the experiment on St. aureus F-137* was 0.39 µg/mL (≈ 1.06 µM); in the experiment with Ps. aeruginosa GN3379* (GN3379, 20 h), 3.13 µg/mL (≈ 8.5 µM); in the experiment on Kl. pneumoniae Y-4*, 3.13 µg/mL (≈ 8.5 µM); in the experiment with E. coli TK-3*, 0.78 µg/mL (≈ 2.12 µM); in the experiment with E. coli GN5482** (setting [1]), no more than 0.05 µg/mL; in the experiment with Pro. vulgaris GN76** it was 0.78 µg/mL (≈ 2.12 µM). Moreover, the MIC in the experiment with Ps. aeruginosa GN918** (20 h, read-out: MIC) worked out at 12.5 µg/mL (≈ 33.9 µM); in the experiment on E. coli NIHJ JC-2 (setting [2]) it was 0.39 µg/mL (≈ 1.06 µM); in the experiment on E. coli TK-111 it was 0.1 µg/mL (≈ 0.271 µM); with Ps. aeruginosa S-68, 1.56 µg/mL (≈ 4.23 µM); in the experiment on Pro. vulgaris GN3027, 0.2 µg/mL (≈ 0.543 µM); in the experiment on St. aureus FDA209P (setting [3]), 0.39 µg/mL (≈ 1.06 µM). Also, the MIC with Pro. morganii T-216 (setting [4]) was 1.56 µg/mL (≈ 4.23 µM); in the experiment on Ps. aeruginosa IFO3445 (IFO3445, 20 h), 3.13 µg/mL (≈ 8.5 µM); in the experiment on Aci. antitratus A-6, 0.39 µg/mL (≈ 1.06 µM); in the experiment on Kl. pneumoniae Y-41, 3.13 µg/mL (≈ 8.5 µM); in the experiment on Kl. pneumoniae Y-50, 0.39 µg/mL (≈ 1.06 µM); in the experiment with Pro. mirabilis T-111 (T111, 20 h, 10^6 cells per ml), 3.13 µg/mL (≈ 8.5 µM). The MIC in the experiment with Ent. cloacae IID977 stood at 1.56 µg/mL (≈ 4.23 µM).

Regarding `O=C(O)c1cn(-c2ccc(F)cc2)c(-c2sccc2-c2ccc([N+](=O)[O-])cc2)cc1=O`, the MIC was 0.1 µg/mL (≈ 0.229 µM) in the experiment on St. aureus F-137*; 25 µg/mL (≈ 57.3 µM) in the experiment with Ps. aeruginosa GN3379* (20 h, read-out: MIC); 6.25 µg/mL (≈ 14.3 µM) in the experiment with Kl. pneumoniae Y-4*; 3.13 µg/mL (≈ 7.17 µM) in the experiment with E. coli TK-3*; 0.2 µg/mL (≈ 0.458 µM) in the experiment with E. coli GN5482** (setting [1]); 3.13 µg/mL (≈ 7.17 µM) in the experiment with Pro. vulgaris GN76**. Further, the MIC came to 12.5 µg/mL (≈ 28.6 µM) in the experiment on Ps. aeruginosa GN918** (20 h, read-out: MIC); 1.56 µg/mL (≈ 3.57 µM) against E. coli NIHJ JC-2; 0.2 µg/mL (≈ 0.458 µM) with E. coli TK-111; 12.5 µg/mL (≈ 28.6 µM) with Ps. aeruginosa S-68; 0.39 µg/mL (≈ 0.894 µM) with Pro. vulgaris GN3027; 0.28 µg/mL (≈ 0.642 µM) in the experiment on St. aureus FDA209P (setting [3]). In addition, the minimal inhibitory concentration (MIC) in the experiment with Pro. morganii T-216 (T216, 20 h, 10^6 cells per ml) was found to be 1.56 µg/mL (≈ 3.57 µM); with Ps. aeruginosa IFO3445 (setting [5]), 12.5 µg/mL (≈ 28.6 µM); with Aci. antitratus A-6, 0.78 µg/mL (≈ 1.79 µM); in the experiment with Kl. pneumoniae Y-41, 6.25 µg/mL (≈ 14.3 µM); with Kl. pneumoniae Y-50 it was 1.56 µg/mL (≈ 3.57 µM); in the experiment on Pro. mirabilis T-111 (T111, 20 h, 10^6 cells per ml), 6.25 µg/mL (≈ 14.3 µM). Also, the MIC in the experiment on Ent. cloacae IID977 was 3.13 µg/mL (≈ 7.17 µM).

In the case of `Cc1ccc(-c2cc(=O)c(C(=O)O)cn2-c2ccc(O)cc2)s1`, the MIC is 0.2 µg/mL (≈ 0.611 µM) with St. aureus F-137*; 3.13 µg/mL (≈ 9.56 µM) with Ps. aeruginosa GN3379* (20 h, read-out: MIC); 1.56 µg/mL (≈ 4.77 µM) with Kl. pneumoniae Y-4*; 0.2 µg/mL (≈ 0.611 µM) in the experiment with E. coli TK-3*; no more than 0.05 µg/mL in the experiment with E. coli GN5482** (setting [1]); 0.2 µg/mL (≈ 0.611 µM) in the experiment on Pro. vulgaris GN76**. For the same molecule, the MIC in the experiment with Ps. aeruginosa GN918** (20 h, read-out: MIC) was 0.78 µg/mL (≈ 2.38 µM); with E. coli NIHJ JC-2 (setting [2]), 0.2 µg/mL (≈ 0.611 µM); with E. coli TK-111, no more than 0.05 µg/mL; in the experiment on Ps. aeruginosa S-68 it was 3.13 µg/mL (≈ 9.56 µM); with Pro. vulgaris GN3027, no more than 0.05 µg/mL; with St. aureus FDA209P (setting [3]), 0.2 µg/mL (≈ 0.611 µM). In addition, the minimum inhibitory concentration (MIC) amounted to 0.39 µg/mL (≈ 1.19 µM) in the experiment on Pro. morganii T-216 (setting [4]); 3.13 µg/mL (≈ 9.56 µM) with Ps. aeruginosa IFO3445 (setting [5]); 0.39 µg/mL (≈ 1.19 µM) in the experiment on Aci. antitratus A-6; 0.78 µg/mL (≈ 2.38 µM) in the experiment on Kl. pneumoniae Y-41; 0.2 µg/mL (≈ 0.611 µM) in the experiment with Kl. pneumoniae Y-50; 3.13 µg/mL (≈ 9.56 µM) in the experiment with Pro. mirabilis T-111 (T111, 10^6 cells per ml, 20 hours, read-out: MIC). Moreover, the MIC in the experiment on Ent. cloacae IID977 is 0.78 µg/mL (≈ 2.38 µM).

For `CC1Cc2cc(-c3cc(=O)c(C(=O)O)cn3-c3ccc(O)cc3)ccc2O1` (stereo not shown), the MIC with St. aureus F-137* is 3.13 µg/mL (≈ 8.61 µM); in the experiment on Ps. aeruginosa GN3379* (20 h, read-out: MIC), 25 µg/mL (≈ 68.8 µM); with Kl. pneumoniae Y-4*, 12.5 µg/mL (≈ 34.4 µM); in the experiment on E. coli TK-3*, 3.13 µg/mL (≈ 8.61 µM); against E. coli GN5482** (GN5482, 20 h), 1.56 µg/mL (≈ 4.29 µM); with Pro. vulgaris GN76** it was 3.13 µg/mL (≈ 8.61 µM). Moreover, the MIC against Ps. aeruginosa GN918** (GN918, 20 h) amounted to 12.5 µg/mL (≈ 34.4 µM); against E. coli NIHJ JC-2, 1.56 µg/mL (≈ 4.29 µM); with E. coli TK-111, 0.78 µg/mL (≈ 2.15 µM); in the experiment with Ps. aeruginosa S-68, 25 µg/mL (≈ 68.8 µM); in the experiment on Pro. vulgaris GN3027 it was 0.78 µg/mL (≈ 2.15 µM); against St. aureus FDA209P, 1.56 µg/mL (≈ 4.29 µM). The MIC in the experiment on Pro. morganii T-216 (setting [4]) was 3.13 µg/mL (≈ 8.61 µM); in the experiment with Ps. aeruginosa IFO3445 (setting [5]) it was 50 µg/mL (≈ 138 µM); in the experiment with Aci. antitratus A-6, 3.13 µg/mL (≈ 8.61 µM); with Kl. pneumoniae Y-41, 6.25 µg/mL (≈ 17.2 µM); with Kl. pneumoniae Y-50, 1.56 µg/mL (≈ 4.29 µM); with Pro. mirabilis T-111 (T111, 20 h, 10^6 cells per ml), 12.5 µg/mL (≈ 34.4 µM). Moreover, the minimum inhibitory concentration (MIC) with Ent. cloacae IID977 amounted to 3.13 µg/mL (≈ 8.61 µM).

In general, MIC refers to the lowest concentration found to suppress growth.
